Measurements reported in ChEMBL document CHEMBL5729184, “Purine derivatives and the use thereof as medicament” (2022).

Molecular target: Glutamate receptor ionotropic, NMDA 2B (Homo sapiens, UniProt Q13224)
Experiment: FLIPR Assay: At the assay day cells were washed 3× with assay buffer, 10 μL buffer remained in the wells after washing. 10 μL Ca kit loading buffer (AAT Bioquest) was added to the cells and the plates were incubated with lid for 60 minutes at r.t. 20 μl assay buffer containing 60 μM glycine (20 μM final) and 3 μM glutamate (1 μM final) was added to column 1-23. Fluorescence (indicating the calcium influx as a result of the NR1/NR2B ion channel activation) was read on the FLIPRtetra device for 60 seconds to monitor the glutamate induced effects. After 2 minutes 20 μL of compound or controls (row 1-22) in assay buffer were carefully added to the wells. […] Each assay microtiter plate contained wells (in column 23 or 24) with DMSO controls instead of compound as controls for glycine/glutamate induced fluorescence (high controls) and wells with 1 μM of a reference NR2b NAM as low controls (Compound 22; reference: Layton, Mark E et al, ACS Chemical Neuroscience 2011, 2(7), 352-362).

Glutamate receptor ionotropic, NMDA 2B, sequence (Q13224 whole entry): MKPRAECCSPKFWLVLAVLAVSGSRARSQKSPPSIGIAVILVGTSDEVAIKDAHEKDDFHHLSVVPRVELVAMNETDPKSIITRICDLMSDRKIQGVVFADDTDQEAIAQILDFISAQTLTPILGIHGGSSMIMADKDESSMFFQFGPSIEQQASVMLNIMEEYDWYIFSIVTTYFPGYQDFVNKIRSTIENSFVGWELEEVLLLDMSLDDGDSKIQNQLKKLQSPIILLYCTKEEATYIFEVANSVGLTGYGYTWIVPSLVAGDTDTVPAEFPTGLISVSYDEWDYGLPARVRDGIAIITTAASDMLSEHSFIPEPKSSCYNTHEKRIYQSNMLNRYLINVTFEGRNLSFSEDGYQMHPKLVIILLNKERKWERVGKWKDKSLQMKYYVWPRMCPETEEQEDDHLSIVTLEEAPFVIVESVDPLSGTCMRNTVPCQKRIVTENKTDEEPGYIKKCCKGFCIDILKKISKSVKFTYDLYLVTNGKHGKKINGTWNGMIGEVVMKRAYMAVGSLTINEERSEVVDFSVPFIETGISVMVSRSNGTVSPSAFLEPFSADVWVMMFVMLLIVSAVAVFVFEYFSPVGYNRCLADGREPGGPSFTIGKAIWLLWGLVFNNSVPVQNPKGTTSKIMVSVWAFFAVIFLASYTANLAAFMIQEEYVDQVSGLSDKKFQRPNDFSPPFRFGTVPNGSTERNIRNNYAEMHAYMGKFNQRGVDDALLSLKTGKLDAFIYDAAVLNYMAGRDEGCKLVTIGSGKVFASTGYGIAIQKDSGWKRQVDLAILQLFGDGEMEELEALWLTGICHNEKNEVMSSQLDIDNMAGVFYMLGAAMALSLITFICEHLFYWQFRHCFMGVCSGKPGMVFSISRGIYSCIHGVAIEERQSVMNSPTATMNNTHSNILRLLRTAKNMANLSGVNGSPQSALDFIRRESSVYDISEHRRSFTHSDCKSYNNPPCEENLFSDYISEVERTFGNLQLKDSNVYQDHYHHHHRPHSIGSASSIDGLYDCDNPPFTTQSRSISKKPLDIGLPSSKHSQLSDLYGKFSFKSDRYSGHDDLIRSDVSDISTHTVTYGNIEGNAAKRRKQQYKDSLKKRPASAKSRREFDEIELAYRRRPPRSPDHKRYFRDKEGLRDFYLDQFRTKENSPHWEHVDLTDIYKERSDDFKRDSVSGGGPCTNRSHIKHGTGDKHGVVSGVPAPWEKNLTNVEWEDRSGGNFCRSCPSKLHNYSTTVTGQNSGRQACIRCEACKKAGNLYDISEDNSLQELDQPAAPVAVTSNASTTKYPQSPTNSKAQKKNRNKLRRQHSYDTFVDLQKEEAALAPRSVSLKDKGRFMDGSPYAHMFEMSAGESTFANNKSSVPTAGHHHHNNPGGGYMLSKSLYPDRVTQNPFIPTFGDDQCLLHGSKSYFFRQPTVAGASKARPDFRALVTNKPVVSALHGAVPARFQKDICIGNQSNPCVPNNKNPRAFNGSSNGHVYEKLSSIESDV

Row | SMILES | IC50 [nM]
1 | Cc1cccc(F)c1COC(=O)N1CCOC(c2nc3cncnc3[nH]2)C1 (stereo not given) | 118
2 | O=C(OCc1ccc(Cl)cc1)N1CCOC(c2nc3cncnc3[nH]2)C1 (stereo not given) | 113
3 | O=C(OCc1ccc(C(F)F)cc1)N1CCOC(c2nc3cncnc3[nH]2)C1 (stereo not given) | 45
4 | O=C(OCc1ccc(F)cc1F)N1CCOC(c2nc3cncnc3[nH]2)C1 (stereo not given) | 102
5 | O=C(OCc1ccc(F)c(F)c1)N1CCOC(c2nc3cncnc3[nH]2)C1 (stereo not given) | 520
6 | Cc1cccc(COC(=O)N2CCOC(c3nc4cncnc4[nH]3)C2)c1 (stereo not given) | 322
7 | O=C(OCc1cccc(F)c1F)N1CCOC(c2nc3cncnc3[nH]2)C1 (stereo not given) | 60
8 | Cc1ccc(COC(=O)N2CCOC(c3nc4cncnc4[nH]3)C2)cc1 (stereo not given) | 67
9 | O=C(OCc1c(F)cc(F)cc1F)N1CCOC(c2nc3cncnc3[nH]2)C1 (stereo not given) | 84
10 | Cc1ccc(COC(=O)N2CCOC(c3nc4c(C)ncnc4[nH]3)C2)cc1 (stereo not given) | 150
11 | Cc1ncnc2[nH]c(C3CN(C(=O)OCc4ccccc4F)CCO3)nc12 (stereo not given) | 385
12 | O=C(OCc1cccc(F)c1)N1CCOC(c2nc3cncnc3[nH]2)C1 (stereo not given) | 295
13 | O=C(OCc1ccc(F)cc1)N1CCOC(c2nc3cncnc3[nH]2)C1 (stereo not given) | 107
14 | O=C(OCc1ccc(F)cc1Cl)N1CCOC(c2nc3cncnc3[nH]2)C1 (stereo not given) | 90
15 | Cc1c(F)cccc1COC(=O)N1CCOC(c2nc3cncnc3[nH]2)C1 (stereo not given) | 520
16 | Cc1cccc(COC(=O)N2CCOC(c3nc4cncnc4[nH]3)C2)c1F (stereo not given) | 83
17 | O=C(OCc1c(F)cccc1F)N1CCOC(c2nc3cncnc3[nH]2)C1 (stereo not given) | 111
18 | O=C(OCc1ccccc1F)N1CCOC(c2nc3cncnc3[nH]2)C1 (stereo not given) | 74
19 | O=C(OCc1ccccc1)N1CCOC(c2nc3cncnc3[nH]2)C1 (stereo not given) | 114
20 | Cc1ccc(COC(=O)N2CCO[C@H](c3nc4cncnc4[nH]3)C2)cc1F | 100
21 | Cc1ncnc2[nH]c(C3CN(C(=O)OCc4ccc(F)cc4)CCO3)nc12 (stereo not given) | 637
22 | O=C(OCc1ccccc1Cl)N1CCOC(c2nc3cncnc3[nH]2)C1 (stereo not given) | 88
23 | O=C(OCc1ccc(Cl)c(F)c1)N1CCOC(c2nc3cncnc3[nH]2)C1 (stereo not given) | 314
24 | Cc1ccc(COC(=O)N2CCOC(c3nc4cncnc4[nH]3)C2)c(F)c1 (stereo not given) | 49
25 | Cc1cc(F)ccc1COC(=O)N1CCOC(c2nc3cncnc3[nH]2)C1 (stereo not given) | 234
